We go through 16 compounds from patent US8629167B2, “Selective androgen receptor modulators” (Radius Health, Inc., priority 2008, dated 2014).

Read-outs that look alike come from different tables or passages of the source.

The subject of test [1] is young, orchidectomized rats. Briefly: Rat Herschberger assay (in vivo androgen and anabolic activity). The following applies: organ weight, 10 mg/kg (po), treated for 4 days. The source says:
The following is a typical procedure of the in vivo evaluation of the selective androgens of this invention. In particular, this assay looks primarily at the ability of the selective androgens of this invention to increase muscle size in an immature, castrated rat. In addition, androgenic effects are looked at primarily by weighing the prostate and seminal vesicles. Selective compounds will show a greater increase in the levator ani relative to the prostate and seminal vesicles when compared to testosterone treated, castrated animals or to intact animals that have not been treated. Immature Sprague Dawley male rats were obtained Charles River Laboratories (Stoneridge, N.Y.). All animals were maintained in a temperature and humidity controlled room with a 12 hr light: 12 hr dark cycle, with ad lib access to food (TD 291615, Teklad, Madison, Wis.) and water. Rats were anesthetized and orchidectomized (GDX) or sham surgery (SHAM) was performed. After a 7-day recovery period, the animals were randomized according to weight and assigned to treatment groups (n=5), SHAM, OVX+vehicle, OVX+Cpd treated. Testosterone propionate (TP 1 mg/kg in 5% DMSO/95% corn oil) was administered by once daily subcutaneous injections, while the compounds of the invention are dosed in vehicle (typically 20% cyclodextrin or 0.5% carboxymethylcellulose) was administered by once daily oral gavage. The rats were then dosed once daily for 4 days. All animals were euthanized via carbon dioxide inhalation 24 hs after the last dose. The prostate, seminal vesicle and levator ani and bulba cavernous (LABC) tissues were removed, weighed and recorded. Body weights were recorded for each animal at baseline and at sacrifice.
Prostate, seminal vesicle and levator ani bulbus cavernosus (LABC) are all represented as % relative to sham. After sacrifice, organ weights of young, orchidectomized rats treated with compound for 4 days are compared to sham operated animals.

The target of the next test is androgen receptor (Rattus norvegicus (Rat), UniProt P15207). Put plainly: androgen receptor binding assay (fluorescence polarization, AR-Fluormone complex). On the procedure: The assay was performed as specified by the manufacturer (Invitrogen, Madison, Wis.). Briefly, 1 μl of 10 mM compound was added to 500 μl of AR screening buffer in a 1.5 ml eppendorf tube to make a 2×10^−5 M stock. 10-fold serial dilutions of the test compounds were prepared ranging in concentration from 10^−5M to 10^−12 M. Each dilution was added in triplicate to a black 384-microtiter plate. The test compounds will be diluted 2-fold in the final reaction. 2×AR-Fluormone™ complex was prepared with 2 nM Flourmone AL Green™ and 30 nM AR. 25 μl of 2× complex was aliquoted to each reaction well, such that the final reaction volume was 50 μl per well. Plate was sealed with a foil cover and incubated in the dark at room temperature for 4 h. Polarization values for each well were measured. The polarization values were plotted against the concentration of the test compound. […] As a control, a competition curve for R1881 (methyltrienolone) was performed for each assay. Curve Fitting was performed using GraphPad Prism® software from GraphPad™ Software Inc. Binding data are reported as a single determination if the experiment was run once only and as the average of experiments if the binding experiment was performed two or more times with that compound.
Were multiple data points have been taken, the value reported is the average of the multiple determinations.

Setting [2] is: single determination or average of multiple determinations, read-out: Binding IC50 (nM), Compound AR-Binding Affinity.

Sequence of androgen receptor (P15207 whole entry, looked up): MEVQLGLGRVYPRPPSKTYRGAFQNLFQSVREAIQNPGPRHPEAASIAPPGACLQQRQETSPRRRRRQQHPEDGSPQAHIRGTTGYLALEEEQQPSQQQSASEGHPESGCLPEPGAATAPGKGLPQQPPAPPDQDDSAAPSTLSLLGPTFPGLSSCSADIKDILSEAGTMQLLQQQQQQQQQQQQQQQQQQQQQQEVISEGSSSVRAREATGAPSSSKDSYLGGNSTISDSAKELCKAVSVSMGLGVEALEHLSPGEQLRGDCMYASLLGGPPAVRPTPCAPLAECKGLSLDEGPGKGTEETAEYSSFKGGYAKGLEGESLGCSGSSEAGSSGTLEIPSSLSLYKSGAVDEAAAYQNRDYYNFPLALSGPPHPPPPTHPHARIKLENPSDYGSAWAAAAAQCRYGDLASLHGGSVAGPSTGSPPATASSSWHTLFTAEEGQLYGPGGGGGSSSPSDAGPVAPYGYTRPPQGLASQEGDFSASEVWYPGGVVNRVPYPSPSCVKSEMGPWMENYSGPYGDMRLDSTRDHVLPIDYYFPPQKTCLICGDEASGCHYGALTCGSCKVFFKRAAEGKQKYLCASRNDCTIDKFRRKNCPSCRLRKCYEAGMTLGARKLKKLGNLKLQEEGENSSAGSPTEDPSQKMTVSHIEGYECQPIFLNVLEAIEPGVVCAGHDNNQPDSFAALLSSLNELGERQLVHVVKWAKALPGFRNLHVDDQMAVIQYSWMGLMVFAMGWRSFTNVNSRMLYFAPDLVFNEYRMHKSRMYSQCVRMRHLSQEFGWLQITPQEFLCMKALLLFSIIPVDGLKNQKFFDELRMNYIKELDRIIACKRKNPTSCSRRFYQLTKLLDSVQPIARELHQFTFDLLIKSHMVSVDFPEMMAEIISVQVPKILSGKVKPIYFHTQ

`Cc1c(N[C@@H](c2nnc(-c3ccccc3)o2)[C@H](C)O)ccc(C#N)c1Cl` [Example 1, 2-chloro-4-((1R,2S)-2-hydroxy-1-(5-phenyl-1,3,4-oxadiazol-2-yl)propylamino)-3-methylbenzonitrile]: in test [1], the “LABC (levator ani bulbus cavernosus), % relative to sham” value was determined as 85%; the “Prostate, % relative to sham” value is reported as 46%; the “Seminal vesicle, % relative to sham” value came out at 69%. The corresponding values for `Cc1c(N[C@@H](c2nnc(-c3ccccc3)o2)[C@@H](C)O)ccc(C#N)c1Cl` [Example 3, 2-chloro-4-((1R,2R)-2-hydroxy-1-(5-phenyl-1,3,4-oxadiazol-2-yl)propylamino)-3-methylbenzonitrile] are 99%, 43% and 37%. In the case of `C[C@H](O)[C@@H](Nc1ccc(C#N)c(Cl)c1)c1nnc(-c2ccc(S(C)(=O)=O)cc2)o1` [Example 48, 2-Chloro-4-((1R,2S)-2-hydroxy-1-(5-(4-(methylsulfonyl)phenyl)-1,3,4-oxadiazol-2-yl)propylamino)benzonitrile], at androgen receptor (setting [2]), the IC50 is more than 1000 nM. As for `CC(=O)Oc1ccc(-c2nnc([C@H](Nc3ccc(C#N)c(Cl)c3C)[C@H](C)OC(C)=O)o2)cc1` [Example 73, 4-(5-((1R,2S)-2-Acetoxy-1-(3-chloro-4-cyano-2-methylphenylamino)propyl)-1,3,4-oxadiazol-2-yl)phenyl acetate], on androgen receptor, the IC50 came out at 30 nM. Still for that read-out and setting: with `CC(=O)O[C@@H](C)[C@@H](Nc1ccc(C#N)c(Cl)c1C)c1nnc(-c2ccccc2)o1` [Example 76, (1R,2S)-1-(3-chloro-4-cyano-2-methylphenylamino)-1-(5-phenyl-1,3,4-oxadiazol-2-yl)propan-2-yl acetate] the figure was 15 nM. Consider `Cc1c(N[C@@H](c2nnc(-c3ccc(NC(=O)c4ccccc4)cc3)o2)[C@H](C)O)ccc(C#N)c1Cl` [Example 77, N-(4-(5-((1R,2S)-1-(3-Chloro-4-cyano-2-methylphenylamino)-2-hydroxypropyl)-1,3,4-oxadiazol-2-yl)phenyl)benzamide], for which, on androgen receptor (setting [2]), the concentration for half-maximal inhibition (IC50) was found to be 1000 nM.

With `CCC(=O)O[C@@H](C)[C@@H](Nc1ccc(C#N)c(Cl)c1C)c1nnc(-c2ccccc2)o1` [Example 84, (1R,2S)-1-(3-Chloro-4-cyano-2-methylphenylamino)-1-(5-phenyl-1,3,4-oxadiazol-2-yl)propan-2-yl propionate], on androgen receptor, the IC50 was 25 nM. The same measure, in the same setting: with `CCCC(=O)O[C@@H](C)[C@@H](Nc1ccc(C#N)c(Cl)c1C)c1nnc(-c2ccc(C#N)cc2)o1` [Example 85, (1R,2S)-1-(3-Chloro-4-cyano-2-methylphenylamino)-1-(5-(4-cyanophenyl)-1,3,4-oxadiazol-2-yl)propan-2-yl butyrate] the figure was 10 nM. Same read-out and setting: the figure for `CCC(=O)O[C@@H](C)[C@@H](Nc1ccc(C#N)c(Cl)c1C)c1nnc(-c2ccc(C#N)cc2)o1` [Example 86, (1R,2S)-1-(3-Chloro-4-cyano-2-methylphenylamino)-1-(5-(4-cyanophenyl)-1,3,4-oxadiazol-2-yl)propan-2-yl propionate] is 120 nM.

With `CC(=O)O[C@@H](C)[C@@H](Nc1ccc(C#N)c(Cl)c1C)c1nnc(-c2ccc(C#N)cc2)o1` [Example 88, (1R,2S)-1-(3-Chloro-4-cyano-2-methylphenylamino)-1-(5-(4-cyanophenyl)-1,3,4-oxadiazol-2-yl)propan-2-yl acetate], the concentration for half-maximal inhibition (IC50) on androgen receptor is 110 nM. Still for that read-out and setting: with `Cc1c(N[C@@H](c2nnc(-c3ccccc3)o2)[C@H](C)OS(N)(=O)=O)ccc(C#N)c1Cl` [Example 90, (1R,2S)-1-(3-Chloro-4-cyano-2-methylphenylamino)-1-(5-phenyl-1,3,4-oxadiazol-2-yl)propan-2-yl sulfamate] the figure was 20 nM. The same measure, in the same setting: with `Cc1c(N[C@@H](c2nnc(-c3ccc(OS(N)(=O)=O)cc3)o2)[C@H](C)O)ccc(C#N)c1Cl` [Example 93, 4-(5-((1R,2S)-1-(3-Chloro-4-cyano-2-methylphenylamino)-2-hydroxypropyl)-1,3,4-oxadiazol-2-yl)phenyl sulfamate] the figure was 25 nM. In the case of `Cc1c(N[C@H](c2ccc(-c3nnco3)cc2)[C@@H](C)OS(N)(=O)=O)ccc(C#N)c1Cl` [Example 94, (1R,2R)-1-(3-Chloro-4-cyano-2-methylphenylamino)-1-(4-(1,3,4-oxadiazol-2-yl)phenyl sulfamate)propan-2-yl sulfamate], the IC50 on androgen receptor (setting [2]) is more than 1000 nM. Consider `C[C@H](O)[C@@H](Nc1ccc(C#N)c2scc(Cl)c12)c1nnc(-c2ccc(C#N)cc2)o1` [Example 95, 3-Chloro-4-((1R,2S)-1-(5-(4-cyanophenyl)-1,3,4-oxadiazol-2-yl)-2-hydroxypropylamino)benzo[b]thiophene-7-carbonitrile], for which the 50% inhibitory concentration (IC50) at androgen receptor stood at 1 nM.

Compound `[2H]c1ccc(-c2nnc([C@H](Nc3ccc(C#N)c(Cl)c3C)[C@H](C)O)o2)cc1` [Example 97, 2-Chloro-4-((1R,2S)-1-(5-(4-deuterophenyl)-1,3,4-oxadiazol-2-yl)-2-hydroxypropylamino)-3-methylbenzonitrile] registered an IC50 on androgen receptor of 18 nM. The same measure, in the same setting: the figure for `Cc1c(N[C@@H](c2nnc(-c3ccc4[nH]ccc4c3)o2)[C@H](C)O)ccc(C#N)c1Cl` [Example 98, 4-((1R,2S)-1-(5-(1H-Indol-5-yl)-1,3,4-oxadiazol-2-yl)-2-hydroxypropylamino)-2-chloro-3-methylbenzonitrile] is 80 nM.

The IC50 is the concentration that inhibits the measured activity by half.
